pKi: −log10 of the molar value.
The molecules below were run against DNA-PK (Homo sapiens, UniProt P78527) (assay: DNA-PK inhibition assay (standard radiometric 33P-ATP kinase assay)). Details: 100 μM ATP, approx. 6 nM DNA-PK.
Assay type: biochemical
Description: Compounds were screened for their ability to inhibit DNA-PK kinase using a standard radiometric assay. Briefly, in this kinase assay the transfer of the terminal ^33P-phosphate in ^33P-ATP to a peptide substrate is interrogated. The assay was carried out in 384-well plates to a final volume of 50 μL per well containing approximately 6 nM DNA-PK, 50 mM HEPES (pH 7.5), 10 mM MgCl2, 25 mM NaCl, 0.01% BSA, 1 mM DTT, 10 μg/mL sheared double-stranded DNA (obtained from Sigma), 0.8 mg/mL DNA-PK peptide (Glu-Pro-Pro-Leu-Ser-Gln-Glu-Ala-Phe-Ala-Asp-Leu-Trp-Lys-Lys-Lys, obtained from American Peptide), and 100 μM ATP.
Accordingly, compounds of the invention were dissolved in DMSO to make 10 mM initial stock solutions. Serial dilutions in DMSO were then made to obtain the final solutions for the assay. A 0.75 μL aliquot of DMSO or inhibitor in DMSO was added to each well, followed by the addition of ATP substrate solution containing ^33P-ATP (obtained from Perkin Elmer). The reaction was started by the addition of DNA-PK, peptide and ds-DNA. After 45 min, the reaction was quenched with 25 μL of 5% phosphoric acid. The reaction mixture was transferred to MultiScreen HTS 384-well PH plates (obtained from Millipore), allowed to bind for one hour, and washed three times with 1% phosphoric acid. Following the addition of 50 μL of Ultima Gold™ high efficiency scintillant (obtained from Perkin Elmer), the samples were counted in a Packard TopCount NXT Microplate Scintillation and Luminescence Counter (Packard BioScience). The Ki values were calculated using Microsoft Excel Solver macros to fit the data to the kinetic model for competitive tight-binding inhibition.

| Compound | pKi |
| --- | --- |
| Fc1c(Cl)ncnc1N[C@H]1CC[C@@H](Oc2cc(N3CCOCC3)cc3nccnc23)CC1 [Compound 277] | > 7.00 |
| COC(=O)c1cccnc1N[C@H]1CC[C@@H](Oc2cc(N3CCOCC3)cc3nccnc23)CC1 [Compound 202] | > 7.00 |
| CCOc1cc(N[C@H]2CC[C@@H](Oc3cc(N4CCOCC4)cc4nccnc34)CC2)nc(C)n1 [Compound 644] | > 7.00 |
| C[C@H](CO)Nc1ncnc(N[C@H]2CC[C@@H](Oc3cc(N4CCOCC4)cc4nccnc34)CC2)c1F [Compound 380] | > 7.00 |
| COc1nccc(N[C@H]2CC[C@@H](Oc3cc(N4CCOCC4)cc4nccnc34)CC2)n1 [Compound 268] | > 7.00 |
| c1cnc(N[C@H]2CC[C@@H](Oc3cc(N4CCOCC4)cc4nccnc34)CC2)nc1 [Compound 28, N-((cis)-4-((7-morpholinoquinoxalin-5-yl)oxy)cyclohexyl)pyrimidin-2-amine] | > 7.00 |
| OC1CCN(c2ccnc(N[C@H]3CC[C@@H](Oc4cc(N5CCOCC5)cc5nccnc45)CC3)n2)C1 (stereo partly drawn) [Compound 187] | > 7.00 |
| Clc1cc(N[C@H]2CC[C@@H](Oc3cc(N4CCOCC4)cc4nccnc34)CC2)ncn1 [Compound 39] | > 7.00 |
| CN(C)C(=O)c1cnc(N[C@H]2CC[C@@H](Oc3cc(N4CCOCC4)cc4nccnc34)CC2)cn1 [Compound 108] | > 7.00 |
| CC(C)Oc1cnc(N[C@H]2CC[C@@H](Oc3cc(N4CCOCC4)cc4nccnc34)CC2)nc1 [Compound 247] | > 7.00 |
| COc1cnc(N[C@H]2CC[C@@H](Oc3cc(N4CCOCC4)cc4nccnc34)CC2)nc1 [Compound 134, 5-methoxy-N-((cis)-4-((7-morpholinoquinoxalin-5-yl)oxy)cyclohexyl)pyrimidin-2-amine] | > 7.00 |
| N#Cc1ccnc(N[C@H]2CC[C@@H](Oc3cc(N4CCOCC4)cc4nccnc34)CC2)n1 [Compound 207] | > 7.00 |
| CNC(=O)c1ccc(N[C@H]2CC[C@@H](Oc3cc(N4CCOCC4)cc4nccnc34)CC2)nc1 [Compound 144] | > 7.00 |
| CN(C)c1cnc(N[C@H]2CC[C@@H](Oc3cc(N4CCOCC4)cc4nccnc34)CC2)nc1 [Compound 67] | > 7.00 |
| COc1nc(C)nc(N[C@H]2CC[C@@H](Oc3cc(N4CCOCC4)cc4nccnc34)CC2)n1 [Compound 604] | > 7.00 |
| N#Cc1cnc(N[C@H]2CC[C@@H](Oc3cc(N4CCOCC4)cc4nccnc34)CC2)nc1 [Compound 44] | > 7.00 |
| Cc1cnc2cc(N3CCOCC3)cc(O[C@H]3CC[C@@H](Nc4ncccn4)CC3)c2n1 [Compound 191] | > 7.00 |
| COc1nc(Cl)cc(N[C@H]2CC[C@@H](Oc3cc(N4CCOCC4)cc4nccnc34)CC2)n1 [Compound 219] | > 7.00 |
| c1cnc2c(O[C@H]3CC[C@@H](Nc4ncc(C5CC5)cn4)CC3)cc(N3CCOCC3)cc2n1 [Compound 109] | > 7.00 |
| O=C(O)c1ccc(N[C@H]2CC[C@@H](Oc3cc(N4CCOCC4)cc4nccnc34)CC2)nc1 [Compound 139] | > 7.00 |
| Cc1cnc(N[C@H]2CC[C@@H](Oc3cc(N4CCOCC4)cc4nccnc34)CC2)nc1N1CCCCC1 [Compound 567] | > 7.00 |
| COc1cc(C)nc(N[C@H]2CC[C@@H](Oc3cc(N4CCOCC4)cc4nccnc34)CC2)n1 [Compound 276] | > 7.00 |
| NC(=O)c1ccc(N[C@H]2CC[C@@H](Oc3cc(N4CCOCC4)cc4nccnc34)CC2)nc1 [Compound 140] | > 7.00 |
| N#Cc1cccnc1N[C@H]1CC[C@@H](Oc2cc(N3CCOCC3)cc3nccnc23)CC1 [Compound 87] | > 7.00 |
| c1ccc(N[C@H]2CC[C@@H](Nc3cc(N4CCOCC4)cc4nccnc34)CC2)nc1 [Compound 24] | > 7.00 |
| CN1CCN(c2ccc(C(=O)N[C@H]3CC[C@@H](Oc4cc(N5CCOCC5)cc5nccnc45)CC3)cc2F)CC1 [Compound 200] | > 7.00 |
| COCc1cc(N[C@H]2CC[C@@H](Oc3cc(N4CCOCC4)cc4nccnc34)CC2)ncn1 [Compound 225] | > 7.00 |

More lines, now with the values ahead:

| pKi | Compound |
| --- | --- |
| > 7.00 | FC(F)(F)c1ccc(N[C@H]2CC[C@@H](Oc3cc(N4CCOCC4)cc4nccnc34)CC2)nc1 [Compound 189] |
| > 7.00 | Fc1cnc(N[C@H]2CC[C@@H](Oc3cc(N4CCOCC4)cc4nccnc34)CC2)nc1 [Compound 37] |
| > 7.00 | c1cc(N[C@H]2CC[C@@H](Oc3cc(N4CCOCC4)cc4nccnc34)CC2)nc(C2CC2)n1 [Compound 267] |
| > 7.00 | c1cnc(N[C@H]2CC[C@@H](Nc3cc(N4CCOCC4)cc4nonc34)CC2)nc1 [Compound 23, (cis)-N^1-(6-morpholinobenzo[c][1,2,5]oxadiazol-4-yl)-N^4-(pyrimidin-2-yl)cyclohexane-1,4-diamine] |
| > 7.00 | COCCNc1cc(N[C@H]2CC[C@@H](Oc3cc(N4CCOCC4)cc4nccnc34)CC2)ncn1 [Compound 263] |
| > 7.00 | Cc1cc(C)nc(N[C@H]2CC[C@@H](Oc3cc(N4CCOCC4)cc4nccnc34)CC2)n1 [Compound 52] |
| > 7.00 | CNC(=O)c1cnc(N[C@H]2CC[C@@H](Oc3cc(N4CCOCC4)cc4nccnc34)CC2)nc1 [Compound 71] |
| > 7.00 | CNc1cc(N[C@H]2CC[C@@H](Oc3cc(N4CCOCC4)cc4nccnc34)CC2)ncn1 [Compound 205] |
| > 7.00 | COc1ccc(N[C@H]2CC[C@@H](Oc3cc(N4CCOCC4)cc4nccnc34)CC2)nn1 [Compound 260] |
| > 7.00 | CCOc1cnc(N[C@H]2CC[C@@H](Oc3cc(N4CCOCC4)cc4nccnc34)CC2)nc1 [Compound 233] |
| > 7.00 | NC(=O)c1cnc(N[C@H]2CC[C@@H](Oc3cc(N4CCOCC4)cc4nccnc34)CC2)nc1 [Compound 65] |
| > 7.00 | CCOCCc1cnc(N[C@H]2CC[C@@H](Oc3cc(N4CCOCC4)cc4nccnc34)CC2)nc1 [Compound 135] |
| > 7.00 | CC(C)NC(=O)c1cnc(N[C@H]2CC[C@@H](Oc3cc(N4CCOCC4)cc4nccnc34)CC2)nc1 [Compound 162] |
| > 7.00 | COc1cc(N[C@H]2CC[C@@H](Oc3cc(N4CCOCC4)cc4nccnc34)CC2)nc(OC)n1 [Compound 245] |
| > 7.00 | CN1CCN(c2ncc(C(=O)N[C@H]3CC[C@@H](Oc4cc(N5CCOCC5)cc5nccnc45)CC3)cn2)CC1 [Compound 199] |
| > 7.00 | Nc1ccc(N[C@H]2CC[C@@H](Oc3cc(N4CCOCC4)cc4nccnc34)CC2)nc1 [Compound 197] |
| > 7.00 | CC(C)(O)c1cnc(N[C@H]2CC[C@@H](Oc3cc(N4CCOCC4)cc4nccnc34)CC2)nc1 [Compound 243] |
| > 7.00 | c1ncc(N[C@H]2CC[C@@H](Nc3cc(N4CCOCC4)cc4nccnc34)CC2)cn1 [Compound 30] |
| > 7.00 | Cc1cnc(N[C@H]2CC[C@@H](Oc3cc(N4CCOCC4)cc4nccnc34)CC2)nc1 [Compound 142] |
| > 7.00 | CCCCc1cnc2cc(N3CCOCC3)cc(O[C@H]3CC[C@@H](Nc4ncccn4)CC3)c2n1 [Compound 63] |
| > 7.00 | OCc1ccc(N[C@H]2CC[C@@H](Oc3cc(N4CCOCC4)cc4nccnc34)CC2)nc1 [Compound 160] |
| > 7.00 | N#Cc1nccc(N[C@H]2CC[C@@H](Oc3cc(N4CCOCC4)cc4nccnc34)CC2)n1 [Compound 203] |
| > 7.00 | Fc1ccnc(N[C@H]2CC[C@@H](Oc3cc(N4CCOCC4)cc4nccnc34)CC2)n1 [Compound 49] |
| > 7.00 | COc1ccc(N[C@H]2CC[C@@H](Oc3cc(N4CCOCC4)cc4nccnc34)CC2)nc1 [Compound 206] |

Reference: patent US12121524B2, “DNA-PK inhibitors” (VERTEX PHARMACEUTICALS INCORPORATED, priority 2018, dated 2024)
